Reference: patent publication US20130032547A1, “STABILIZATION AND DISINFECTION OF WASTES USING HIGH ENERGY E-BEAM AND CHEMICAL OXIDANTS” (priority 2011, published 2013)

Assays:
[1] = system: estrogenic activity of 17-β-estradiol (E2); human estrogen receptor; details: it has been shown; cited from earlier work
Salmonella Typhimurium = type: cell-based
[2] = system: Escherichia coli (ATCC #25922); type: cell-based
[3] = system: aerobic spores (Bacillus subtilis); type: cell-based
[4] = system: male-specific coliphages (MS-2); type: cell-based, coliphage MS-2
Poliovirus Type 1 = type: cell-based, Poliovirus-1
[5] = system: estrogenic activity of 17-β-estradiol (E2); human estrogen receptor (ER) α; assay: Estrogenic activity, ZR-75 breast cancer cell ERE-Luc reporter assay; type: cell-based; details: E2 spiked
[6] = system: estrogenic activity of 17-β-estradiol (E2); human estrogen receptor; assay: Estrogenic activity, YES assay (recombinant yeast); type: cell-based, Saccharomyces cereviciae; details: E2 spiked
spiked organisms = assay: Preliminary studies using PBS: ferrate with E-beam on spiked organisms; type: cell-based; details: ferrate 2 ppm or 4 ppm in combination with E-beam (6 kGy, 8 kGy and 12 kGy)
[7] = Table 28, 50 ppm + E-Beam (8 kGy)
[8] = Table 28, 100 ppm + E-Beam (8 kGy)
[9] = Table 28, 200 ppm + E-Beam (8 kGy)
[10] = Table 29, 50 ppm + E-Beam (8 kGy)
[11] = Table 29, 100 ppm + E-Beam (8 kGy)
[12] = Table 29, 200 ppm + E-Beam (8 kGy)

Structure (SMILES): CC/C(=C(\c1ccc(O)cc1)c1ccc(OCCN(C)C)cc1)c1ccccc1 [hydroxytamoxifen]
- response in the YES assay (in words) [1]: partial agonistic (estrogenic) response

Structure (SMILES): [O]=[Fe](=[O])([O-])[O-] [Ferrate, ferrate]
- log reduction (approximated) (Salmonella Typhimurium): around three
- surviving bacterial colonies (detection limit) (Salmonella Typhimurium): < 10 CFU/ml
- surviving bacterial colonies (detection limit) [2]: < 10 CFU/ml
- log reduction of spore formers [3]: two to three
- reduction of spore formers (in words) [3]: slight reduction
- inactivation (in words) [4]: Complete inactivation
- inactivation (in words) (Poliovirus Type 1): complete elimination
- % Reduction in Estrogenic Activity, Liquid Portion (n = 3) ([5]; Table 28 (aerobically digested biosolids, inferred b252), 50 ppm Ferrate): 84%
- % Reduction in Estrogenic Activity, Liquid Portion (n = 3) [5, 7]: 85%
- % Reduction in Estrogenic Activity, Liquid Portion (n = 3) [5, 8]: 90%
- % Reduction in Estrogenic Activity, Liquid Portion (n = 3) ([5]; Table 28, 100 ppm Ferrate): 88%
- % Reduction in Estrogenic Activity, Liquid Portion (n = 3) [5, 9]: 81%
- % Reduction in Estrogenic Activity, Liquid Portion (n = 3) ([5]; Table 28, 200 ppm Ferrate): 89%
- % Reduction in Estrogenic Activity, Liquid Portion (n = 3) ([5]; Table 29 (anaerobically digested biosolids, inferred b252), 50 ppm Ferrate): 68%
- % Reduction in Estrogenic Activity, Liquid Portion (n = 3) [5, 10]: 71%
- % Reduction in Estrogenic Activity, Liquid Portion (n = 3) [5, 11]: 74%
- % Reduction in Estrogenic Activity, Liquid Portion (n = 3) ([5]; Table 29, 100 ppm Ferrate): 73%
- % Reduction in Estrogenic Activity, Liquid Portion (n = 3) [5, 12]: 71%
- % Reduction in Estrogenic Activity, Liquid Portion (n = 3) ([5]; Table 29, 200 ppm Ferrate): 72%
- % Reduction in Estrogenic Activity, Solid Portion (n = 3) [6, 7]: 40%
- % Reduction in Estrogenic Activity, Solid Portion (n = 3) ([6]; Table 28, 50 ppm Ferrate): 40%
- % Reduction in Estrogenic Activity, Solid Portion (n = 3) [6, 8]: 43%
- % Reduction in Estrogenic Activity, Solid Portion (n = 3) ([6]; Table 28, 100 ppm Ferrate): 27%
- % Reduction in Estrogenic Activity, Solid Portion (n = 3) [6, 9]: 51%
- % Reduction in Estrogenic Activity, Solid Portion (n = 3) ([6]; Table 28, 200 ppm Ferrate): 59%
- % Reduction in Estrogenic Activity, Solid Portion (n = 3) [6, 10]: 29%
- % Reduction in Estrogenic Activity, Solid Portion (n = 3) ([6]; Table 29, 50 ppm Ferrate): 30%
- % Reduction in Estrogenic Activity, Solid Portion (n = 3) [6, 11]: 20%
- % Reduction in Estrogenic Activity, Solid Portion (n = 3) ([6]; Table 29, 100 ppm Ferrate): 31%
- % Reduction in Estrogenic Activity, Solid Portion (n = 3) [6, 12]: 30%
- % Reduction in Estrogenic Activity, Solid Portion (n = 3) ([6]; Table 29, 200 ppm Ferrate): 29%
- inactivation (in words) (spiked organisms): inactivated
